Measured values from patent US20150246058A1, “COMPOSITION FOR PREVENTING HAIR LOSS AND ACCELERATING HAIR GROWTH” (RNS CO., LTD., priority 2012, published 2015).

Test system: 5α-reductase
Experiment: 5α-reductase inhibitory efficacy: DHT produced in testosterone-stimulated dermal papilla cells (DHT ELISA)
Format: cell-based
Details: 50 nM testosterone, 24 hours, produced DHT relative to control
Description: After seeding 1 ml of dermal papilla cells (DPCs) by 5×10^5/ml into each well of a 24-well plate, then incubating the same for 24 hours, each of the reaction products prepared according to procedures described in Examples 1 to 72 was added in amounts of 50 μg/ml, 10 μg/ml and 0 μg/ml, respectively, to individual wells. After 1 hour, the wells were subjected to stimulation using 50 nM testosterone (DMSO dissolved). The supernatant was discarded 24 hours after culturing, to thus obtain DPc pellets. A content of dihydrotestosterone (DHT) (DB52021, Hamburg, Germany) was determined by means of enzyme-linked immune-sorbent assay. DPCs cell pellets were seeded in an amount of 100 μL into each of Dihydrotestosterone (DHT) ELISA microtiter strips coated with rabbit anti-DHT antibody, 25 μL of DHT antiserum was seeded in every well, and subjected to a reaction at 2 to 8° C. for 15 to 20 hours, followed by washing the same three times. Thereafter, 100 μL of DHT-HRP enzyme conjugate was seeded in every well and reacted on a shaker at room temperature for 30 minutes, followed by washing the same three times. Furthermore, 100 μL of substrate was seeded in every well and reacted on a shaker at room temperature for 20 to 30 minutes. Then, the product was treated using 100 μL stop solution, and subjected to measurement of absorbance at 450 nm to express an amount of produced DHT by the absorbance (three times repeated). An amount of produced DHT relative to a control was calculated in terms of an inhibitory rate (%), and results thereof are shown in Table 3 below.

Compound	5α-reductase inhibitory rate (%) (sample concentration 10 μg/ml)	5α-reductase inhibitory rate (%) (sample concentration 50 μg/ml)
CCCCCCCCCCCCCCCCCC(=O)O[C@H]1CC[C@@]2(C)C(=CC[C@H]3[C@@H]4CC[C@H]([C@H](C)CC[C@@H](C)C(C)C)[C@@]4(C)CC[C@@H]32)C1 [Compound in Example 45, Campesterol stearate]	26	43
CC(C)[C@@H](C)/C=C/[C@@H](C)[C@H]1CC[C@H]2[C@@H]3CC=C4C[C@@H](O)CC[C@]4(C)[C@H]3CC[C@]12C [Compound in Example 46, brassicasterol]	8	19
C/C=C(\CC[C@@H](C)[C@H]1CC[C@H]2[C@@H]3CC=C4C[C@@H](O)CC[C@]4(C)[C@H]3CC[C@]12C)C(C)C [Compound in Example 48, fucosterol]	12	19
COC1CCC2(C)C(CCC3(C)C2CC=C2C4CC(C)(C)CCC4(C)CCC23C)C1(C)C (stereo not drawn) [Compound in Example 50, O-methyl-β-amyrin]	16	31
CCCCCOC1CCC2(C)C(CCC3(C)C2CC=C2C4CC(C)(C)CCC4(C)CCC23C)C1(C)C (stereo not drawn) [Compound in Example 51, O-pentyl-β-amyrin]	22	38
CCCCCCCCOC1CCC2(C)C(CCC3(C)C2CC=C2C4CC(C)(C)CCC4(C)CCC23C)C1(C)C (stereo not drawn) [Compound in Example 52, O-octyl-β-amyrin]	28	43
CCCCCCCCOC1CCC2(C)C(CCC3(C)C2CC=C2C4C(C)C(C)CCC4(C)CCC23C)C1(C)C (stereo not drawn) [Compound in Example 55, O-octyl-α-amyrin]	24	38
CCCCCCCCOC1CCC2(C)C(=CCC3C2CCC2(C)C(C(C)CCC(CC)C(C)C)CCC32)C1 (stereo not drawn) [Compound in Example 57, O-octyl-β-sitosterol]	21	41
CCCCCCCCCCCCCCCCCCO[C@H]1CC[C@@]2(C)C(=CC[C@H]3[C@@H]4CC[C@H]([C@H](C)CC[C@@H](CC)C(C)C)[C@@]4(C)CC[C@@H]32)C1 [Compound in Example 58, O-octadecyl-β-sitosterol]	31	46
CCCCCCCCOC1CCC2(C)C(CCC3(C)C2CC=C2C4C(C)C(C)CCC4(C(=O)O)CCC23C)C1(C)C (stereo not drawn) [Compound in Example 59, O-octyl-ursolic acid]	22	41
CCCCCCCCCCCCCCCCCCOC1CCC2(C)C(CCC3(C)C2CC=C2C4C(C)C(C)CCC4(C(=O)O)CCC23C)C1(C)C (stereo not drawn) [Compound in Example 60, O-octadecyl-ursolic acid]	35	49
CCCCCCCCOC1CCC2(C)C(CCC3(C)C2CC=C2C4CC(C)(C)CCC4(C(=O)O)CCC23C)C1(C)C (stereo not drawn) [Compound in Example 61, O-octyl-oleanolic acid]	22	37
CCCCCCCCOC1CCC2(C)C(CCC3(C)C2CC=C2C4CC(C)(C)CCC4(C)CCC23C)C1(C)C(=O)O (stereo not drawn) [Compound in Example 63, O-octyl-α-boswellic acid]	21	34
C=C(C)C1CCC2(C(=O)O)CCC3(C)C(CCC4C5(C)CCC(OCCCCCCCC)C(C)(C)C5CCC43C)C12 (stereo not drawn) [Compound in Example 65, O-octyl-betulinic acid]	19	31
CCCCCCCCOC1CCC2(C)C(CCC3(C)C2C(=O)C=C2C4CC(C)(C(=O)O)CCC4(C)CCC23C)C1(C)C (stereo not drawn) [Compound in Example 66, O-octyl-glycyrrhetinic acid]	33	51
CCCCCCCCOC1CCC2(C)C(=CCC3C2CCC2(C)C(C(C)CCC=C(C)C)CCC32)C1 (stereo not drawn) [Compound in Example 67, O-octyl-desmosterol]	24	41
CCCCCCCCO[C@H]1CC[C@@]2(C)C(=CC[C@H]3[C@@H]4CC[C@H]([C@H](C)CCCC(C)C)[C@@]4(C)CC[C@@H]32)C1 [Compound in Example 68, O-octyl-cholesterol]	35	45
CCCCCCCCOC1CCC2(C)C(=CCC3C2CCC2(C)C(C(C)C=CC(CC)C(C)C)CCC32)C1 (stereo not drawn) [Compound in Example 69, O-octyl-stigmasterol]	19	33
CCCCCCCCOC1CCC2(C)C(=CCC3C2CCC2(C)C(C(C)CCC(C)C(C)C)CCC32)C1 (stereo not drawn) [Compound in Example 70, O-octyl-campesterol]	28	51
CCCCCCCCOC1CCC2(C)C(=CCC3C2CCC2(C)C(C(C)C=CC(C)C(C)C)CCC32)C1 (stereo not drawn) [Compound in Example 71, O-octyl-brassicasterol]	29	38

Compound	5α-reductase inhibitory rate (%) (sample concentration 10 μg/ml)	5α-reductase inhibitory rate (%) (sample concentration 50 μg/ml)
C/C=C(\CC[C@@H](C)[C@H]1CC[C@H]2[C@@H]3CC=C4C[C@@H](OCCCCCCCC)CC[C@]4(C)[C@H]3CC[C@]12C)C(C)C [Compound in Example 72, O-octyl-fucosterol]	19	35
O-dodecyl-β-amyrin [Compound in Example 53]	31	41
O-octadecyl-oleanolic acid [Compound in Example 62]	29	51
O-octadecyl-α-amyrin [Compound in Example 56]	38	49
O-octadecyl-β-amyrin [Compound in Example 54]	35	48
O-octyl-β-boswellic acid [Compound in Example 64]	35	51
betulinic acid stearate [Compound in Example 33]	31	51
brassicasterol stearate [Compound in Example 47]	24	39
desmosterol stearate [Compound in Example 39]	26	41
dihydroandrosterone stearate [Compound in Example 37]	24	38
fucosterol stearate [Compound in Example 49]	25	41
glycyrrhetinic acid stearate [Compound in Example 35]	24	39
oleanolic acid acetate [Compound in Example 23]	11	23
oleanolic acid stearate [Compound in Example 25]	35	41
ursolic acid acetate [Compound in Example 19]	22	31
ursolic acid stearate [Compound in Example 21]	35	51
α-amyrin stearate [Compound in Example 13]	45	57
α-boswellic acid stearate [Compound in Example 28]	37	51
β-amyrin behenate [Compound in Example 9]	38	59
